Test results: patent US11471537B2, “Oligomer extended insulin-Fc conjugates” (Novo Nordisk A/S, priority 2017, dated 2022)
Where “and” joins values, the source holds several entries; their conditions need not be identical. Equal entries are not always repeated.

Experiments:
Sprague-Dawley rats = experiment: PD studies: blood glucose after subcutaneous dosing; type: in vivo; details: sc, dose 30 nmol/kg
Method: The pharmacodynamic effect of the Insulin Fc conjugates of the examples were investigated in normal male Sprague-Dawley rats weighing approx. 350 g at study start.
Animals had free access to food and water during the experiment period. They were dosed subcutaneously in the neck region with a dose of 30 nmol/kg (unless otherwise stated in the figures below). Blood samples for blood glucose and plasma insulin analysis were collected from the tongue veins up to 10 days post dosing. Blood glucose was measured using Biosen S Line (EKF).

insulin receptor A = insulin receptor A (Homo sapiens, UniProt P06213); experiment: Insulin receptor affinity; type: binding; details: relative to affinity of human insulin for insulin receptor A (100%)
isolated rat adipocytes = experiment: Insulin-stimulated lipogenesis; type: cell-based; details: 1% HSA; relative to the activity of human insulin (100%)
Method: Insulin-stimulated lipogenesis was measured in isolated rat adipocytes in presence of 1% HSA as described in Moody A J, Stan M A, Stan M, Gliemann J. A Simple Free Fat Cell Bioassay for Insulin. Hormone And Metabolic Research. 1974; 6(1):12-6, see results in Table 6.

[1] = PK studies: intravenous and subcutaneous administration to SD rats, insulin-Fc concentrations by immuno-assay; type: in vivo; details: for PK rat sc [T½ (h)] Mean Value: subcutaneous
Method: Insulin-Fc conjugates were tested in vivo by intravenous and subcutaneous administration to SD rats. Blood samples were collected and the insulin-Fc concentrations were measured by immuno-assay.

Sequence of insulin receptor A (P06213 28-1370 isoform P06213-2 limits assumed): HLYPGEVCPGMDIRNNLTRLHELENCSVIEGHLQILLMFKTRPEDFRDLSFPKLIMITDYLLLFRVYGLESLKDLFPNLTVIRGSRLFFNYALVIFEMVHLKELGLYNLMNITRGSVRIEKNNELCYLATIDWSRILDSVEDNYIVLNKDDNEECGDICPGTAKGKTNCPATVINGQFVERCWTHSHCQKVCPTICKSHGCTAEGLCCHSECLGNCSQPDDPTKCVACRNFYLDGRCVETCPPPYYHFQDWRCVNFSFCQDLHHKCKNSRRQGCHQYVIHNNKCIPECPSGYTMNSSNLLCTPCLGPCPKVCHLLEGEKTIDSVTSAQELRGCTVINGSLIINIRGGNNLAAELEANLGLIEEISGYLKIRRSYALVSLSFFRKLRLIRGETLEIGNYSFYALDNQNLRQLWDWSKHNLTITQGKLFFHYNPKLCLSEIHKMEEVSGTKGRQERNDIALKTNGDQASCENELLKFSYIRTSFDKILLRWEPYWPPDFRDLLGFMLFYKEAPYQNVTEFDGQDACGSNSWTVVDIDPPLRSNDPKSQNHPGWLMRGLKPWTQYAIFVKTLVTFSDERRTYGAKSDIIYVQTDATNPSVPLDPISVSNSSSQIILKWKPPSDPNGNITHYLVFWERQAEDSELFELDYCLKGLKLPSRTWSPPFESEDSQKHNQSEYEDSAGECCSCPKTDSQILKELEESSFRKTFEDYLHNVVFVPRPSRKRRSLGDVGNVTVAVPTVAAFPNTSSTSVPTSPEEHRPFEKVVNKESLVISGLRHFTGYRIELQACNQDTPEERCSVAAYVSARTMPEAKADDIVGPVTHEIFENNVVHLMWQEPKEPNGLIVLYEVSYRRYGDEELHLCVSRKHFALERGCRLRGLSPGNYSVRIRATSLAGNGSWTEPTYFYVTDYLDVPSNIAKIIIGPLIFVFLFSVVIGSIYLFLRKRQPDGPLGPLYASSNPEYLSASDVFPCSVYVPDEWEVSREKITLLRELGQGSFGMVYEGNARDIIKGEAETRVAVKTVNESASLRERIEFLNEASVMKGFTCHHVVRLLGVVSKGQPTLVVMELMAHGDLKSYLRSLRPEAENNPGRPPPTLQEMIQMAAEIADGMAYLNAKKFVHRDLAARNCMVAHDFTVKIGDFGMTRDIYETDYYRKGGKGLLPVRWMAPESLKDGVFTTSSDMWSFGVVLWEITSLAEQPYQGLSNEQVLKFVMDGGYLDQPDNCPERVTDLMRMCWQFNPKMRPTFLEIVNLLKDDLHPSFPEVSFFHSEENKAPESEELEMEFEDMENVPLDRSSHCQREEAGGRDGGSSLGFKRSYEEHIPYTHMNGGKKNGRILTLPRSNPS
Sequence of insulin receptor A (P06213 763-1382 partner limits assumed): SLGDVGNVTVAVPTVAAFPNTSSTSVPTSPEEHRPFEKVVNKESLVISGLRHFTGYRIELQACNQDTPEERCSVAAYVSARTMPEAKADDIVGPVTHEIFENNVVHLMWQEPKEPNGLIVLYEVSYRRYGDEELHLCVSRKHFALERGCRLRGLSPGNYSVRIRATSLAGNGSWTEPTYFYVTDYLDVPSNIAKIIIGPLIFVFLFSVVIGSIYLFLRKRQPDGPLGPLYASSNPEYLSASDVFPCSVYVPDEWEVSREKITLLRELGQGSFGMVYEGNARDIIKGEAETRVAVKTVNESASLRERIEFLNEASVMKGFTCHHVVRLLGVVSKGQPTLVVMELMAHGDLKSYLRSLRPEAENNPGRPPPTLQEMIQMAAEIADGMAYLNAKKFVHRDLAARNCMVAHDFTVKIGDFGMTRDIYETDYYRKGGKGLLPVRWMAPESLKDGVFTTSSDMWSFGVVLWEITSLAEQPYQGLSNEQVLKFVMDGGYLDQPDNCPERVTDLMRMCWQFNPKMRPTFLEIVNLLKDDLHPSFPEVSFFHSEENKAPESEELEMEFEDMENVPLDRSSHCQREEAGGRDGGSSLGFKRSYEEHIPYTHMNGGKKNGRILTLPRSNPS

Substance	Insulin receptor affinity [IC50 relative to HI (%)] Mean Value (insulin receptor A) [%]	Average blood glucose (Sprague-Dawley rats; time 0 days) [mM]	Average blood glucose (Sprague-Dawley rats; time 0.041667 days) [mM]	Average blood glucose (Sprague-Dawley rats; time 0.125 days) [mM]	Average blood glucose (Sprague-Dawley rats; time 0.291667 days) [mM]	Average blood glucose (Sprague-Dawley rats; time 1 day) [mM]	Average blood glucose (Sprague-Dawley rats; time 2 days) [mM]	Average blood glucose (Sprague-Dawley rats; time 3 days) [mM]	Average blood glucose (Sprague-Dawley rats; time 4 days) [mM]	Average blood glucose (Sprague-Dawley rats; time 6 days) [mM]	Average blood glucose (Sprague-Dawley rats; time 7 days) [mM]	Average blood glucose (Sprague-Dawley rats; time 8 days) [mM]	Average blood glucose (Sprague-Dawley rats; time 9 days) [mM]	Average blood glucose (Sprague-Dawley rats; time 10 days) [mM]	Lipogenesis in rat adipocytes [Potency (%)] Mean Value (isolated rat adipocytes) [%]	PK rat iv [T½ (h)] Mean Value [1] [h]	PK rat sc [T½ (h)] Mean Value [1] [h]	further results
(A14E, A21G, A22(GQAP)19, A98K^, A99P, B25H, B29R, desB30 human insulin)/(227A, 234A, 235K, 297E, 315Q, 384Q, des447 hIgG4-Fc(228-447))4-[bis[2-[(2-acetyl)amino]ethyl]amino]-4-oxo-butanoyl Conjugate [Example 5.15]	3.68	6.748	6.168	5.052	3.292	2.524	2.752	4.116	5.744	6.32	6.516	5.904	–	–	3.68	58.4	67.6	–
(A14E, A21G, A22(GQEP)19, A98K^, A99P, B25H, B29R, desB30 human insulin)/(227A, 234A, 235K, 297E, 315Q, 384Q, des447 hIgG4-Fc(228-447))4-[bis[2-[(2-acetyl)amino]ethyl]amino]-4-oxo-butanoyl Conjugate [Example 5.12]	1.85	–	–	–	–	–	–	–	–	–	–	–	5.204	5.556	2.35	23.3	25.1	Average blood glucose (Sprague-Dawley rats; time 0 days, listed as Ex 5.12): 5.816 mM and 5.516 mM; Average blood glucose (Sprague-Dawley rats; time 0.041667 days, listed as Ex 5.12): 5.598 mM and 6.16 mM; Average blood glucose (Sprague-Dawley rats; time 0.125 days, listed as Ex 5.12): 5.674 mM and 4.608 mM; Average blood glucose (Sprague-Dawley rats; time 0.208333 days): 5.338 mM; Average blood glucose (Sprague-Dawley rats; time 0.291667 days, listed as Ex 5.12): 4.598 mM and 3.988 mM; Average blood glucose (Sprague-Dawley rats; time 1 day, listed as Ex 5.12): 2.986 mM and 2.88 mM; Average blood glucose (Sprague-Dawley rats; time 2 days, listed as Ex 5.12): 2.524 mM and 2.348 mM; Average blood glucose (Sprague-Dawley rats; time 3 days, listed as Ex 5.12): 2.576 mM and 2.972 mM; Average blood glucose (Sprague-Dawley rats; time 4 days, listed as Ex 5.12): 3.284 mM and 6.028 mM; Average blood glucose (Sprague-Dawley rats; time 5 days, listed as Ex 5.12): 6.884 mM and 6.06 mM; Average blood glucose (Sprague-Dawley rats; time 6 days, listed as Ex 5.12): 6.506 mM and 5.74 mM; Average blood glucose (Sprague-Dawley rats; time 7 days, listed as Ex 5.12): 6.202 mM and 5.716 mM; Average blood glucose (Sprague-Dawley rats; time 8 days, listed as Ex 5.12): 6.046 mM and 5.568 mM
A14E, A21G, A22(GQAPGQEP)6, A70K^, A71P, B25H, B29R, desB30 human insulin/(227A, 234A, 235K, 297E, 315Q, 384Q, des447 hIgG4-Fc(228-447))4-[bis[2-[(2-acetyl)amino]ethyl]amino]-4-oxo-butanoyl Conjugate [Example 5.14]	5.37	6.248	5.32	4.08	3.048	2.356	2.4	2.832	4.304	6.032	6.076	5.5	–	–	4.86	46.6	54.0	–
A14E, A21G, A22(GQEP)12, A70K^, A71P, B25H, B29R, desB30 human insulin/(227A, 234A, 235K, 297E, 315Q, 384Q, des447 hIgG4-Fc(228-447))4-[bis[2-[(2-acetyl)amino]ethyl]amino]-4-oxo-butanoyl Conjugate [Example 5.17]	3.98	6.372	5.84	5.14	3.672	2.6	2.704	2.772	5.232	5.88	5.908	5.656	–	–	4.39	46.2	40.3	–

Second part, led by results:

Insulin receptor affinity [IC50 relative to HI (%)] Mean Value (insulin receptor A) [%]	Substance	Average blood glucose (Sprague-Dawley rats; time 0 days) [mM]	Average blood glucose (Sprague-Dawley rats; time 0.041667 days) [mM]	Average blood glucose (Sprague-Dawley rats; time 0.125 days) [mM]	Average blood glucose (Sprague-Dawley rats; time 0.291667 days) [mM]	Average blood glucose (Sprague-Dawley rats; time 1 day) [mM]	Average blood glucose (Sprague-Dawley rats; time 2 days) [mM]	Average blood glucose (Sprague-Dawley rats; time 3 days) [mM]	Average blood glucose (Sprague-Dawley rats; time 4 days) [mM]	Average blood glucose (Sprague-Dawley rats; time 6 days) [mM]	Average blood glucose (Sprague-Dawley rats; time 7 days) [mM]	Average blood glucose (Sprague-Dawley rats; time 8 days) [mM]	Average blood glucose (Sprague-Dawley rats; time 9 days) [mM]	Average blood glucose (Sprague-Dawley rats; time 10 days) [mM]	Lipogenesis in rat adipocytes [Potency (%)] Mean Value (isolated rat adipocytes) [%]	PK rat iv [T½ (h)] Mean Value [1] [h]	PK rat sc [T½ (h)] Mean Value [1] [h]	further results
3.95	(A14E, A21G, A22(GQAP)18, A94G, A95Q, A96A, A97K^, A98P, B29R, desB30 human insulin)/(227A, 234A, 235K, 297E, 315Q, 384Q, des447 hIgG4-Fc(228-447))4-[bis[2-[(2-acetyl)amino]ethyl]amino]-4-oxo-butanoyl Conjugate [Example 5.26]	5.82	5.984	5.3	4.384	3.332	4.992	6.352	5.804	6.232	6.048	6.236	5.972	5.88	3.23	49.8	53.5	Average blood glucose (Sprague-Dawley rats; time 5 days): 5.752 mM
3.86	(A14E, A21G, A22(GQAP)19, A98K^, A99P, B25H, B29R, desB30 human insulin)/(227A, 234A, 235K, 297E, 315Q, 384Q, des447 hIgG4-Fc(228-447))6-[bis[2-[(2-acetyl)amino]ethyl]amino]-6-oxo-hexanoyl conjugate [Example 5.16]	6.544	5.972	4.74	4.028	2.42	2.592	3.156	5.7	5.784	5.848	5.72	–	–	4.34	25.7	36.2	–
4.70	(A14E, A21G, A22(GQAP)24, A118G, A119Q, A120A, A121K^, A122P, B25H, B29R, desB30 human insulin)/(227A, 234A, 235K, 297E, 315Q, 384Q, des447 hIgG4-Fc(228-447))4-[bis[2-[(2-acetyl)amino]ethyl]amino]-4-oxo-butanoyl Conjugate [Example 5.23]	5.384	5.768	4.808	4.136	2.86	2.6	3.536	5.544	5.796	6.056	5.672	5.62	6.308	5.36	57.1	73.2	Average blood glucose (Sprague-Dawley rats; time 5 days): 5.684 mM
4.00	A14E, A21G, A22(GQAPGQAPGQEP)6-GQAP, A98K^, A99P, B29R, desB30 human insulin/(227A, 234A, 235K, 297E, 315Q, 384Q, des447 hIgG4-Fc(228-447))4-[bis[2-[(2-acetyl)amino]ethyl]amino]-4-oxo-butanoyl Conjugate [Example 5.19]	6.4	5.988	4.92	3.84	2.632	2.62	4.312	6.104	5.9	6.128	5.512	–	–	3.02	30.8	55.0	–
